Reference: PMC10593844, “Structure-function analyses reveal key molecular determinants of HIV-1 CRF01_AE resistance to the entry inhibitor temsavir” (Nature Communications, 2023)
Several values for one entry are separate records, joined by “and”; a condition that tells them apart may be missing. Equal values may be shown once.

Legend:
[1] = test system: HIV-1JR-FL Env WT on HEK293T cells; format: binding; conditions: JRFL WT; temsavir 10 µM; listed as TMR
[2] = test system: clade B YU2 Env LMST on HEK293T cells; format: binding; conditions: temsavir 10 µM, listed as TMR
[3] = test system: HIV-1 pseudovirus bearing EnvJR-FL S375T; experiment: organism not typed; format: cell-based; conditions: for Relative infectivity (%): JRFL S375T
[4] = test system: CRF01_AE CM244 Env WT on HEK293T cells; format: binding; conditions: temsavir 10 µM, listed as TMR
[5] = test system: CRF01_AE 92TH023 Env WT on HEK293T cells; format: binding; conditions: 92TH023 WT; temsavir 10 µM; listed as TMR
[6] = test system: CRF01_AE 92TH023 Env LMHS on HEK293T cells; format: binding; conditions: 92TH023 LMHS; temsavir 10 µM; listed as TMR
[7] = test system: HIV-1 pseudovirus bearing clade B YU2 Env S375T; experiment: organism not typed; format: cell-based; conditions: for Relative infectivity (%): YU2 S375T
[8] = test system: HIV-1 pseudovirus bearing EnvJR-FL WT; experiment: organism not typed; format: cell-based; conditions: for Relative infectivity (%): JRFL WT
[9] = biological target: T1, clade B YU2 Env S375T on HEK293T cells (Human immunodeficiency virus type 1 group M subtype B, UniProt P35961, S370T); format: binding; conditions: temsavir 10 µM, listed as TMR
T1 construct: expressed in transfected cells; host or cells: HEK293T (pSVIIIenv co-transfected with a Tat expressor)

[10] = test system: HIV-1JR-FL Env S375T on HEK293T cells; format: binding; conditions: JRFL S375T; temsavir 10 µM; listed as TMR
[11] = test system: CRF01_AE 92TH023 Env H375T on HEK293T cells; format: binding; conditions: 92TH023 H375T; temsavir 10 µM; listed as TMR
[12] = test system: HIV-1 pseudovirus bearing CRF01_AE CM244 Env LMHS; experiment: organism not typed; format: cell-based; conditions: for Relative infectivity (%): CM244 LMHS
[13] = test system: CRF01_AE 92TH023 Env LMHT on HEK293T cells; format: binding; conditions: 92TH023 LMHT; temsavir 10 µM; listed as TMR
[14] = test system: HIV-1 pseudovirus bearing EnvJR-FL S375W; experiment: organism not typed; format: cell-based; conditions: for Relative infectivity (%): JRFL S375W
[15] = test system: HIV-1 pseudovirus bearing CRF01_AE CM244 Env WT; experiment: organism not typed; format: cell-based; conditions: for Relative infectivity (%): CM244 WT
[16] = test system: CRF01_AE CM244 Env LM+HS on HEK293T cells; format: binding; conditions: temsavir 10 µM, listed as TMR
[17] = test system: clade B YU2 Env LM on HEK293T cells; format: binding; conditions: temsavir 10 µM, listed as TMR
[18] = test system: HIV-1 pseudovirus bearing clade B YU2 Env LM; experiment: organism not typed; format: cell-based; conditions: for Relative infectivity (%): YU2 LM
[19] = test system: HIV-1 pseudovirus bearing CRF01_AE CM244 Env LM; experiment: organism not typed; format: cell-based; conditions: for Relative infectivity (%): CM244 LM
[20] = test system: HIV-1JR-FL Env S375H on HEK293T cells; format: binding; conditions: JRFL S375H; temsavir 10 µM; listed as TMR
[21] = test system: HIV-1 pseudovirus bearing EnvJR-FL S375H; experiment: organism not typed; format: cell-based; conditions: for Relative infectivity (%): JRFL S375H
[22] = test system: HIV-1 pseudovirus bearing EnvJR-FL S375F; experiment: organism not typed; format: cell-based
[23] = test system: HIV-1JR-FL Env S375W on HEK293T cells; format: binding; conditions: JRFL S375W; temsavir 10 µM; listed as TMR
[24] = biological target: T2, clade B YU2 Env S375H on HEK293T cells (Human immunodeficiency virus type 1 group M subtype B, UniProt P35961, S370H); format: binding; conditions: temsavir 10 µM, listed as TMR
T2 construct: expressed in transfected cells; host or cells: HEK293T (pSVIIIenv co-transfected with a Tat expressor)

[25] = test system: HIV-1 pseudovirus bearing CRF01_AE 92TH023 Env LM; experiment: organism not typed; format: cell-based; conditions: for Relative infectivity (%): 92TH023 LM

With `COc1cnc(-n2cnc(C)n2)c2[nH]cc(C(=O)C(=O)N3CCN(C(=O)c4ccccc4)CC3)c12` [Temsavir, temsavir] the “sCD4 binding (+TMR) - Fold over DMSO” value [1] was 0.09994 and 0.08955 and 0.1163, the “sCD4 binding (+TMR) - Fold over DMSO” value [2] was 0.9452 and 1.1963 and 0.9128 and the IC50 ([3]; Cf2Th-CD4/CCR5) was 0.43 nM. The “Relative infectivity (%)” value ([3]; Temsavir 0.1 nM) was 69.2755% and 98.112% and 68.2496%, the “Relative infectivity (%)” value ([3]; Temsavir 5 nM) was 1.701% and 2.403% and 0.1043% and the “Relative infectivity (%)” value ([3]; Temsavir 25 nM) was 0.2129% and 0.1167% and 0.02715% and 9.3062%. The “Relative infectivity (%)” value ([3]; Temsavir 100 nM) was 0.02755% and 0.0119% and 0.01656% and 2.113%, the “sCD4 binding (+TMR) - Fold over DMSO” value [4] was 1.042 and 0.9403 and 0.9549 and the “sCD4 binding (+TMR) - Fold over DMSO” value [5] was 0.9655 and 0.9282 and 0.9905. For the same compound, the “sCD4 binding (+TMR) - Fold over DMSO” value [6] was 0.3873 and 0.484 and 0.5948, the IC50 ([7]; Cf2Th-CD4/CCR5) was 0.73 nM and the “Relative infectivity (%)” value ([7]; Temsavir 1 nM) was 32.779% and 22.5844% and 35.0676%. For the same compound, the “Relative infectivity (%)” value ([7]; Temsavir 5 nM) was 2.479% and 1.401% and 1.77%, the “Relative infectivity (%)” value ([7]; Temsavir 10 nM) was 0.4727% and 0.2789% and 0.1619% and the “Relative infectivity (%)” value ([7]; Temsavir 50 nM) was 0.1346% and 0.1101% and 0.1511%. The “Relative infectivity (%)” value ([7]; Temsavir 100 nM) was 0.1098% and 0.1253% and 0.1727%, the IC50 ([8]; Cf2Th-CD4/CCR5) was 0.36 nM and the “Relative infectivity (%)” value ([8]; Temsavir 0.1 nM) was 88.4413% and 81.9041% and 67.8312%. For the same compound, the “Relative infectivity (%)” value ([8]; Temsavir 5 nM) was 0.09027% and 0.782% and 0.1663%, the “Relative infectivity (%)” value ([8]; Temsavir 25 nM) was 0.07266% and 0.1285% and 0.09925% and 0.3863% and the “Relative infectivity (%)” value ([8]; Temsavir 100 nM) was 0.1307% and 0.3086% and 0.1992% and 0.5674%. For the same compound, the “sCD4 binding (+TMR) - Fold over DMSO” value [9] was 0.6011 and 0.7082 and 0.7739, the “sCD4 binding (+TMR) - Fold over DMSO” value [10] was 0.1797 and 0.1688 and 0.2064 and the “sCD4 binding (+TMR) - Fold over DMSO” value [11] was 0.7474 and 0.9648 and 0.9745. The “Relative infectivity (%)” value ([12]; Temsavir 5 nM) was 5.229% and 3.403% and 2.611%, the “Relative infectivity (%)” value ([12]; Temsavir 10 nM) was 1.16% and 4.177% and 2.605% and the “Relative infectivity (%)” value ([12]; Temsavir 50 nM) was 0.3118% and 0.2016% and 0.39%. For the same compound, the IC50 ([12]; Cf2Th-CD4/CCR5) was 0.7 nM, the “sCD4 binding (+TMR) - Fold over DMSO” value [13] was 0.7044 and 0.6853 and 0.7442 and the IC50 ([14]; Cf2Th-CD4/CCR5) was > 100 nM. For the same compound, the “Relative infectivity (%)” value ([14]; Temsavir 0.1 nM) was 99.9863% and 100.025% and 95.7102%, the “Relative infectivity (%)” value ([14]; Temsavir 0.5 nM) was 97.6131% and 107.833% and 88.0394% and the “Relative infectivity (%)” value ([14]; Temsavir 1 nM) was 112.34% and 95.1648% and 85.749%. The “Relative infectivity (%)” value ([14]; Temsavir 5 nM) was 108.208% and 99.6983% and 99.0301%, the “Relative infectivity (%)” value ([15]; Temsavir 1 nM) was 91.0915% and 114.42% and 104.549% and the “Relative infectivity (%)” value ([15]; Temsavir 5 nM) was 80.9718% and 103.03% and 93.7921%. The “Relative infectivity (%)” value ([15]; Temsavir 10 nM) was 79.7783% and 110.299% and 108.245%, the “Relative infectivity (%)” value ([15]; Temsavir 50 nM) was 78.0773% and 106.103% and 90.5088% and the IC50 ([15]; Cf2Th-CD4/CCR5) was > 50 nM. For the same compound, the “sCD4 binding (+TMR) - Fold over DMSO” value [16] was 0.6661 and 0.4581 and 0.6625, the “sCD4 binding (+TMR) - Fold over DMSO” value [17] was 0.8112 and 0.8641 and 1.018 and the IC50 ([18]; Cf2Th-CD4/CCR5) was 9.17 nM. For the same compound, the “Relative infectivity (%)” value ([18]; Temsavir 1 nM, Fig 2f) was 76.4591% and 76.4018% and 119.182%, the “Relative infectivity (%)” value ([18]; Temsavir 2 nM, Fig S1) was 74.57% and 102.72% and 96.57% and the “Relative infectivity (%)” value ([18]; Temsavir 5 nM, Fig 2f) was 65.3412% and 84.0034% and 74.4376%. The “Relative infectivity (%)” value ([18]; Temsavir 10 nM, Fig 2f) was 41.1017% and 43.3512% and 50.8185%, the “Relative infectivity (%)” value ([18]; Temsavir 10 nM, Fig S1) was 72.47% and 80.59% and 43.3% and the “Relative infectivity (%)” value ([18]; Temsavir 50 nM, Fig 2f) was 13.0704% and 12.6708% and 13.2107%. For the same compound, the “Relative infectivity (%)” value ([18]; Temsavir 50 nM, Fig S1) was 31.31% and 45.33% and 30.59%, the “Relative infectivity (%)” value ([18]; Temsavir 100 nM, Fig 2f) was 5.153% and 3.308% and 7.353% and the “Relative infectivity (%)” value ([18]; Temsavir 100 nM, Fig S1) was 8.15% and 12.22% and 6.99%. The “Relative infectivity (%)” value ([19]; Temsavir 1 nM) was 102.819% and 104.55% and 70.4862%, the “Relative infectivity (%)” value ([19]; Temsavir 10 nM) was 98.1419% and 107.4% and 59.1318% and the “Relative infectivity (%)” value ([19]; Temsavir 50 nM) was 106.175% and 96.9147% and 54.579%. The IC50 ([19]; Cf2Th-CD4/CCR5) was > 50 nM, the “sCD4 binding (+TMR) - Fold over DMSO” value [20] was 1.158 and 1.01 and 1.118 and the IC50 ([21]; Cf2Th-CD4/CCR5) was > 100 nM. The “Relative infectivity (%)” value ([21]; Temsavir 0.1 nM) was 97.5172% and 99.7027% and 99.1558%, the “Relative infectivity (%)” value ([21]; Temsavir 0.5 nM) was 94.7921% and 100.166% and 82.7419% and the “Relative infectivity (%)” value ([21]; Temsavir 1 nM) was 92.4628% and 111.302% and 80.2089%. For the same compound, the “Relative infectivity (%)” value ([21]; Temsavir 5 nM) was 89.7935% and 91.5252% and 60.6402%, the “Relative infectivity (%)” value ([21]; Temsavir 25 nM) was 193.211% and 192.383% and 121.78% and 152.325% and the “Relative infectivity (%)” value ([21]; Temsavir 100 nM) was 67.6822% and 45.331% and 44.6004% and 67.6402%. The IC50 ([22]; Cf2Th-CD4/CCR5) was > 100 nM, the “Relative infectivity (%)” value ([22]; JRFL S375F, Temsavir 0.1 nM) was 97.0588% and 121.506% and 78.411% and the “sCD4 binding (+TMR) - Fold over DMSO” value [23] was 1.038 and 0.9906 and 0.8801. The “sCD4 binding (+TMR) - Fold over DMSO” value [24] was 1.163 and 1.208 and 0.9124, the “Relative infectivity (%)” value ([25]; Temsavir 1 nM) was 82.8885% and 105.829% and 81.5038% and the “Relative infectivity (%)” value ([25]; Temsavir 5 nM) was 63.4532% and 71.1451% and 85.9246%. For the same compound, the “Relative infectivity (%)” value ([25]; Temsavir 10 nM) was 66.9458% and 79.651% and 87.1271%, the “Relative infectivity (%)” value ([25]; Temsavir 50 nM) was 76.0092% and 99.9867% and 85.6288% and the IC50 ([25]; Cf2Th-CD4/CCR5) was > 50 nM.
